Reference: US10052320B2, “Substituted quinoxalines as FGFR kinase inhibitors” (ASTEX THERAPEUTICS LIMITED, priority 2011, dated 2018)

Columns and labels:
KDR (h) (VEGFR2) = KDR (h) (VEGFR2) (Homo sapiens, UniProt P35968); assay: KDR (VEGFR2) (enzymatic assay), TR-FRET; format: biochemical
How it was run: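 Enzyme at 150 ng/ml was incubated 120 min at room temperature with 500 nM Btn-Flt3 peptide and 3 μM ATP in 50 mM HEPES pH 7.5, 6 mM MnCl2, 1 mM DTT, 0.1 mM Na3VO4, 0.01% Triton-X-100, 1% DMSO final. EDTA stop with Eu-anti-P-Tyr/SA-XL-665, 60 min; TR-FRET read in RFU.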

[1] = target: T1, Ba/F3-Flt3-transfected cells (Homo sapiens, UniProt P36888, cells depend on it, form not given); assay: Ba/F3-Flt3 (minus IL3) cellular proliferation assay, Alamar Blue; format: cell-based; conditions: minus IL3
T1 sequence (P36888 1-993): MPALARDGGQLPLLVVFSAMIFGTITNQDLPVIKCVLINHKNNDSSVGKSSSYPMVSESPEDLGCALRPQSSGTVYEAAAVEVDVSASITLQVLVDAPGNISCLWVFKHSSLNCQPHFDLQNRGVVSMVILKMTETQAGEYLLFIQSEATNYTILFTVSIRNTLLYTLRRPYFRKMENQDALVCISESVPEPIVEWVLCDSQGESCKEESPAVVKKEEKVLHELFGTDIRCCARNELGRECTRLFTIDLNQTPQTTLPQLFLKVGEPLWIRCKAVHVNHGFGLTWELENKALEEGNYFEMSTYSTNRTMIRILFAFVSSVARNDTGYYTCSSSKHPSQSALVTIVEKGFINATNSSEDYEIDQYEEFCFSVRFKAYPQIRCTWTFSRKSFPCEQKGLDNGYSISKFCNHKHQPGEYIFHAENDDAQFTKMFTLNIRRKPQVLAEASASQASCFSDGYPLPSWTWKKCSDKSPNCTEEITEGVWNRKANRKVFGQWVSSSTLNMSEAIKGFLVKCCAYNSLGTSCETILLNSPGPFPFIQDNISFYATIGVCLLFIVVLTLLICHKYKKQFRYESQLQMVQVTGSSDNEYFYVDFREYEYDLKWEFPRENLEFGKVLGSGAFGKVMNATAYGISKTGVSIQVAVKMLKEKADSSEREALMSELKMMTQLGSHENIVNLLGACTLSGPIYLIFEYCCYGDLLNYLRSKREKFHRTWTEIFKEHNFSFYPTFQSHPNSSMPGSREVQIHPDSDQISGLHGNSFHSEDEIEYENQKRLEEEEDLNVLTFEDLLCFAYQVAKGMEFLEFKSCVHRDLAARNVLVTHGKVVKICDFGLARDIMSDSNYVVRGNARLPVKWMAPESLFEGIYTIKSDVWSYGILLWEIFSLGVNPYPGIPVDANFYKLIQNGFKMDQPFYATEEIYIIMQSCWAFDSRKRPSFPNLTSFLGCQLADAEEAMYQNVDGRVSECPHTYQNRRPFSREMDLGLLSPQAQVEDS

[2] = test system: Ba/F3-Flt3-transfected cells in the presence of 10 ng/ml murine IL3; assay: Ba/F3-Flt3 (plus IL3) cellular proliferation counterscreen, Alamar Blue; format: cell-based; conditions: Mus musculus; plus 10 ng/ml murine IL3; read-out: BAF3-FLT3 (PLUS IL3) 384 well pIC50 (converted)

KDR (h) (VEGFR2), sequence (P35968 20-1356): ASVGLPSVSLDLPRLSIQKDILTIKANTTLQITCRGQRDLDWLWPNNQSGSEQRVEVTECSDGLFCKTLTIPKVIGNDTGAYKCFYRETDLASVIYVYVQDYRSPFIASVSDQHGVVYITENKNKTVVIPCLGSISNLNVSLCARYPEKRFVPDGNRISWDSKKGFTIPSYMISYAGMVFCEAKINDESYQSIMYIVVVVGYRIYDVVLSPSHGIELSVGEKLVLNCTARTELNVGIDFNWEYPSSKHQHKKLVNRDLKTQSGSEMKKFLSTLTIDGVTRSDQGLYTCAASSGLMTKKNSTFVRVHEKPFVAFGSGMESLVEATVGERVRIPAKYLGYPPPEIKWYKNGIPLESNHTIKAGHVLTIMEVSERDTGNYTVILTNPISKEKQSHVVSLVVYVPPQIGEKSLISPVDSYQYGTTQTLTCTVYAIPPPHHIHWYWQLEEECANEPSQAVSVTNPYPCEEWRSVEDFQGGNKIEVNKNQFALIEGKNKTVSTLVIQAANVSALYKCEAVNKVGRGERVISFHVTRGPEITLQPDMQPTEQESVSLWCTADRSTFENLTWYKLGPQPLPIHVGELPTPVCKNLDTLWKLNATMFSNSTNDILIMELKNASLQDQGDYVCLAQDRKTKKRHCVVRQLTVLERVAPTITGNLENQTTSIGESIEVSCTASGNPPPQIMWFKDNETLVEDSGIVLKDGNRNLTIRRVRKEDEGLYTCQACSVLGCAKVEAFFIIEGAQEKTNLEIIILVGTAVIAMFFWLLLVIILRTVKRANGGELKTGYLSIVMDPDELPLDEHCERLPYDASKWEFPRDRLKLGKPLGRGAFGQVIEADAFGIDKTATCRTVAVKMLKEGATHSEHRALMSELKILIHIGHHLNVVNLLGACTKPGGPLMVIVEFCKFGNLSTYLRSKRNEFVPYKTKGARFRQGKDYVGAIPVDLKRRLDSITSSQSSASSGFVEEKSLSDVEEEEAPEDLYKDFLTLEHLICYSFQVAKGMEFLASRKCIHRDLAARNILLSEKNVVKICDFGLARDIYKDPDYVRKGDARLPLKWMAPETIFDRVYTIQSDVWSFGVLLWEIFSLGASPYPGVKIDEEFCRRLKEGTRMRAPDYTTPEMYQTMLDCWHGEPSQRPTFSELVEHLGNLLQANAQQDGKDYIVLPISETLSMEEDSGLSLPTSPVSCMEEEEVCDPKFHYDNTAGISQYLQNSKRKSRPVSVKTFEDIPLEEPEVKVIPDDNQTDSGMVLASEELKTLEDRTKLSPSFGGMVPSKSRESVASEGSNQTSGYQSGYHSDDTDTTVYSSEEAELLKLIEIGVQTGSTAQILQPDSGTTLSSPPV

COc1cc(OC)cc(N(CCO)c2ccc3ncc(-c4ccc(N5CCNCC5)nc4)nc3c2)c1 [Compound 165]
IC50 (KDR (h) (VEGFR2)): 129 nM | BAF3-FLT3 (MIN IL3) 384 well pIC50 [1]: 5.38 | IC50 [2]: ~5750 nM

COc1cc(OC)cc(N(CCO)c2ccc3ncc(-c4ccc(N5CCNCC5)cc4)nc3c2)c1 [Compound 166]
IC50 (KDR (h) (VEGFR2)): 23.4 nM | BAF3-FLT3 (MIN IL3) 384 well pIC50 [1]: 5.46 | IC50 [2]: ~5620 nM

COc1cc(OC)cc(N(CCNC(C)C)c2ccc3ncc(-n4cnc(COC(C)=O)c4)nc3c2)c1 [Compound 167]
IC50 (KDR (h) (VEGFR2)): 251 nM | BAF3-FLT3 (MIN IL3) 384 well pIC50 [1]: <5 | IC50 [2]: > 10000 nM

COc1cc(OC)cc(N(CCNC(C)C)c2ccc3ncc(-c4ccc(N5CCOCC5)nc4)nc3c2)c1 [Compound 168]
IC50 (KDR (h) (VEGFR2)): 63.1 nM | BAF3-FLT3 (MIN IL3) 384 well pIC50 [1]: 5.13 | IC50 [2]: ~8320 nM

COc1cc(OC)cc(N(CCN2CCOCC2)c2ccc3ncc(-c4ccc(N)nc4)nc3c2)c1 [Compound 169]
IC50 (KDR (h) (VEGFR2)): 126 nM | BAF3-FLT3 (MIN IL3) 384 well pIC50 [1]: <5 | IC50 [2]: > 10000 nM

COc1cc(OC)cc(N(CCNC(C)C)c2ccc3ncc(-c4ccc(N5CCN(C)CC5)nc4)nc3c2)c1 [Compound 170]
IC50 (KDR (h) (VEGFR2)): 135 nM | BAF3-FLT3 (MIN IL3) 384 well pIC50 [1]: 5.47 | IC50 [2]: 5010 nM

COc1cc(OC)cc(N(CCO)c2ccc3ncc(/C(C)=N/OC(C)(C)C)nc3c2)c1 [Compound 171]
IC50 (KDR (h) (VEGFR2)): > 1000 nM | BAF3-FLT3 (MIN IL3) 384 well pIC50 [1]: <5 | IC50 [2]: > 10000 nM

COC(=O)C1CCCN1c1cnc2ccc(N(CCO)c3cc(OC)cc(OC)c3)cc2n1 (stereo not drawn) [Compound 172]
IC50 (KDR (h) (VEGFR2)): > 1000 nM | BAF3-FLT3 (MIN IL3) 384 well pIC50 [1]: 5.19 | IC50 [2]: > 10000 nM

COc1cc(OC)cc(N(CCO)c2ccc3ncc(C4=CCN(C(=O)OC(C)(C)C)C4)nc3c2)c1 [Compound 173]
IC50 (KDR (h) (VEGFR2)): 479 nM | BAF3-FLT3 (MIN IL3) 384 well pIC50 [1]: <5 | IC50 [2]: > 10000 nM

COc1cc(OC)cc(N(CCO)c2ccc3ncc(C4=CCN(C(=O)OC(C)(C)C)CC4)nc3c2)c1 [Compound 178]
IC50 (KDR (h) (VEGFR2)): > 1000 nM | BAF3-FLT3 (MIN IL3) 384 well pIC50 [1]: <5 | IC50 [2]: > 10000 nM

COc1cc(OC)cc(N(CCNC(C)C)c2ccc3ncc(C(=O)N4CCN(C)CC4)nc3c2)c1 [Compound 179]
IC50 (KDR (h) (VEGFR2)): 77.6 nM | BAF3-FLT3 (MIN IL3) 384 well pIC50 [1]: <5 | IC50 [2]: > 10000 nM

COc1cc(OC)cc(N(CCNC(C)C)c2ccc3ncc(C(=O)N4CCCCC4)nc3c2)c1 [Compound 180]
IC50 (KDR (h) (VEGFR2)): 191 nM | BAF3-FLT3 (MIN IL3) 384 well pIC50 [1]: <5 | IC50 [2]: > 10000 nM

COc1cc(OC)cc(N(CCNC(C)C)c2ccc3ncc(C(=O)N4CCOCC4)nc3c2)c1 [Compound 181]
IC50 (KDR (h) (VEGFR2)): > 1000 nM | BAF3-FLT3 (MIN IL3) 384 well pIC50 [1]: <5 | IC50 [2]: > 10000 nM

COc1cc(OC)cc(N(CCNC(C)C)c2ccc3ncc(C(=O)NCCCN4CCCCC4)nc3c2)c1 [Compound 182]
IC50 (KDR (h) (VEGFR2)): 112 nM | BAF3-FLT3 (MIN IL3) 384 well pIC50 [1]: <5 | IC50 [2]: > 10000 nM

COc1cc(OC)cc(N(CC#Cc2ncccc2OC)c2ccc3ncc(-c4cccnc4)nc3c2)c1 [Compound 183]
IC50 (KDR (h) (VEGFR2)): > 1000 nM | BAF3-FLT3 (MIN IL3) 384 well pIC50 [1]: 5.04 | IC50 [2]: > 10000 nM

COc1cc(OC)cc(N(CCO)c2ccc3ncc(C(=O)Nc4cnn(C)c4)nc3c2)c1 [Compound 184]
IC50 (KDR (h) (VEGFR2)): > 1000 nM | BAF3-FLT3 (MIN IL3) 384 well pIC50 [1]: <5 | IC50 [2]: > 10000 nM

COc1cc(OC)cc(N(CCO)c2ccc3ncc(C4CCN(C(=O)OC(C)(C)C)CC4)nc3c2)c1 [Compound 185]
IC50 (KDR (h) (VEGFR2)): > 1000 nM | BAF3-FLT3 (MIN IL3) 384 well pIC50 [1]: <5 | IC50 [2]: > 10000 nM

COc1cc(OC)cc(N(CCCO)c2ccc3ncc(-c4ccnc(C(=O)NCCOCCO)c4)nc3c2)c1 [Compound 186]
IC50 (KDR (h) (VEGFR2)): 871 nM | BAF3-FLT3 (MIN IL3) 384 well pIC50 [1]: <5 | IC50 [2]: > 10000 nM
